Measurements: patent US20230407243A1, “GENETIC PLATFORM TO INVESTIGATE THE FUNCTIONS OF BACTERIAL DRUG EFFLUX PUMPS” (priority 2022, published 2023)
Where two headings read alike, the source gives them in different places.

What was measured:
Format in all cases: cell-based, Escherichia coli
wild-type (WT) K-12-Pore = assay: microbe, parasite or virus in culture; conditions: Escherichia coli, technical duplicate
Outline: (§1)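 E. coli strains carrying a genomically integrated constitutive fhuA ΔC/Δ4L pore were grown 18 h in LB at 37 °C, then diluted 1/2000 in MHB II from OD600 ~1.0. Compounds were tested in duplicate, 2-fold serial titration, for 18 h at 37 °C with shaking. MIC came from OD600 with the pre-incubation background subtracted.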

ΔtolC-Pore = assay: microbe, parasite or virus in culture; conditions: for MIC: Escherichia coli, 18 h, read-out: Minimum inhibitory concentration, ΔtolC-Pore; for Minimum inhibitory concentration (MIC), Pore ΔtolC: Table 10, with pore, technical duplicate
Outline: as §1

E. coli EKO-35 = assay: microbe, parasite or virus in culture; conditions: for Fold change of MICs: EKO-35 compared to EKO-35 (reference); for MIC: Escherichia coli, EKO35, technical duplicate
Outline: (§2)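 MHB II broth microdilution; inoculum from 18 h LB culture, PBS-adjusted to OD600 ~1.0, then 1/2000 dilution. Compounds 2-fold titrated, duplicates, DMSO solvent control. 18 h, 37 °C, 900 rpm; background-corrected OD600 end point.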

[1] = system: wild-type E. coli K-12 str. BW25113; assay: microbe, parasite or virus in culture; conditions: Escherichia coli, BW25113, technical duplicate
Outline: as §2

E. coli ΔtolC = assay: microbe, parasite or virus in culture; conditions: for MIC: Escherichia coli, 18 h, read-out: Minimum Inhibitory Concentration, ΔtolC; for Minimum inhibitory concentration (MIC), ΔtolC: Table 10, without pore, technical duplicate
Outline: as §2

EKO-35 araC::emrAB = assay: MIC susceptibility profiling, efflux platform; conditions: for Fold change of MICs: EKO-35 araC::emrAB compared to EKO-35; for MIC: Escherichia coli, Table 13B, non-porinated, technical duplicate, read-out: Minimum Inhibitory Concentration, EKO-35 araC::emrAB
Outline: as §2

EKO-35 araC::emrKY = assay: MIC susceptibility profiling, efflux platform; conditions: for Fold change of MICs: EKO-35 araC::emrKY compared to EKO-35; for MIC: Escherichia coli, Table 13B, non-porinated, technical duplicate, read-out: Minimum Inhibitory Concentration, EKO-35 araC::emrKY
Outline: as §2

EKO-35 araC::mdtBC = assay: MIC susceptibility profiling, efflux platform; conditions: for Fold change of MICs: EKO-35 araC::mdtBC compared to EKO-35; for MIC: Escherichia coli, Table 13B, non-porinated, technical duplicate, read-out: Minimum Inhibitory Concentration, EKO-35 araC::mdtBC
Outline: as §2

EKO-35 araC::acrB = assay: MIC susceptibility profiling, efflux platform; conditions: for Fold change of MICs: EKO-35 araC::acrB compared to EKO-35; for MIC: Escherichia coli, Table 13A, non-porinated, technical duplicate, read-out: Minimum Inhibitory Concentration, EKO-35 araC::acrB
Outline: as §2

EKO-35 araC::macAB = assay: MIC susceptibility profiling, efflux platform; conditions: for Fold change of MICs: EKO-35 araC::macAB compared to EKO-35; for MIC: Escherichia coli, Table 13B, non-porinated, technical duplicate, read-out: Minimum Inhibitory Concentration, EKO-35 araC::macAB
Outline: as §2

EKO-35 araC::acrD = assay: MIC susceptibility profiling, efflux platform; conditions: for Fold change of MICs: EKO-35 araC::acrD compared to EKO-35; for MIC: Escherichia coli, Table 13A, non-porinated, technical duplicate, read-out: Minimum Inhibitory Concentration, EKO-35 araC::acrD
Outline: as §2

[2] = system: EKO-35 araC::mexCD (MexCD from P. aeruginosa); assay: MIC susceptibility profiling, efflux platform; conditions: for Fold change of MICs: EKO-35 araC::mexCD compared to EKO-35; for MIC: Table 13B, non-porinated, technical duplicate, read-out: Minimum Inhibitory Concentration, EKO-35 araC::mexCD
Outline: as §2

EKO-35 araC::acrEF = assay: MIC susceptibility profiling, efflux platform; conditions: for MIC: Escherichia coli, Table 13A, non-porinated, technical duplicate, read-out: Minimum Inhibitory Concentration, EKO-35 araC::acrEF; for Fold change of MICs: EKO-35 araC::acrEF compared to EKO-35
Outline: as §2

EKO-35 araC::mdtEF = assay: MIC susceptibility profiling, efflux platform; conditions: for MIC: Escherichia coli, Table 13A, non-porinated, technical duplicate, read-out: Minimum Inhibitory Concentration, EKO-35 araC::mdtEF; for Fold change of MICs: EKO-35 araC::mdtEF compared to EKO-35
Outline: as §2

EKO-35 araC::acrBD408A = assay: MIC susceptibility profiling, efflux platform; conditions: for Fold change of MICs: EKO-35 araC::acrBD408A compared to EKO-35; for MIC: Escherichia coli, Table 13B, non-porinated, technical duplicate, read-out: Minimum Inhibitory Concentration, EKO-35 araC::acrBD408A
Outline: as §2

EKO-35-Pore = assay: MIC susceptibility profiling, porinated strain; conditions: for Fold changes of MICs: EKO-35-Pore compared to EKO-35-Pore (reference); for MIC: Escherichia coli, technical duplicate
Outline: as §1

EKO-35 araC::acrD Pore = assay: MIC susceptibility profiling, porinated efflux platform; conditions: for Fold changes of MICs: EKO-35 araC::acrD Pore compared to EKO-35-Pore; for MIC: Escherichia coli, Table 14A, porinated, technical duplicate, read-out: Minimum inhibitory concentration, EKO-35 araC::acrD Pore
Outline: as §1

EKO-35 araC::emrKY Pore = assay: as above; conditions: for Fold changes of MICs: EKO-35 araC::emrKY Pore compared to EKO-35-Pore; for MIC: Escherichia coli, EKO-35 araC::emrKY Pore, technical duplicate, read-out: Minimum inhibitory concentration
Outline: as §1

[3] = system: EKO-35 araC::acrBD408A Pore; assay: as above; conditions: for Fold changes of MICs: EKO-35 araC::acrBD408A Pore compared to EKO-35-Pore; for MIC: Escherichia coli, EKO-35 araC::acrBD408A Pore, technical duplicate, read-out: Minimum inhibitory concentration
Outline: as §1

[4] = Table 10, with pore, read-out: Minimum inhibitory concentration (MIC), Pore K-12
[5] = Table 14A, porinated, read-out: Minimum inhibitory concentration, K-12 (WT)-Pore
[6] = Table 10, without pore, read-out: Minimum inhibitory concentration (MIC), EKO-35
[7] = Table 13A, non-porinated, read-out: Minimum Inhibitory Concentration, EKO-35
[8] = Table 10, without pore, read-out: Minimum inhibitory concentration (MIC), K-12
[9] = Table 13A, non-porinated, read-out: Minimum Inhibitory Concentration, K-12
[10] = Table 10, with pore, read-out: Minimum inhibitory concentration (MIC), Pore EKO-35
[11] = Table 14A, porinated, read-out: Minimum inhibitory concentration, EKO-35-Pore

Row | Compound | MIC (wild-type (WT) K-12-Pore; [4]) [µg/mL] | MIC (wild-type (WT) K-12-Pore; [5]) [µg/mL] | MIC (ΔtolC-Pore) [µg/mL] | Minimum inhibitory concentration (MIC), Pore ΔtolC (ΔtolC-Pore) [µg/mL] | Fold change of MICs (E. coli EKO-35) [fold] | MIC (E. coli EKO-35; [6]) [µg/mL] | MIC (E. coli EKO-35; [7]) [µg/mL] | MIC [1, 8] [µg/mL] | MIC [1, 9] [µg/mL] | MIC (E. coli ΔtolC) [µg/mL] | Minimum inhibitory concentration (MIC), ΔtolC (E. coli ΔtolC) [µg/mL] | Fold change of MICs (EKO-35 araC::emrAB) [fold] | Fold change of MICs (EKO-35 araC::emrKY) [fold] | MIC (EKO-35 araC::emrKY) [µg/mL] | Fold change of MICs (EKO-35 araC::mdtBC) [fold] | Fold change of MICs (EKO-35 araC::acrB) [fold] | Fold change of MICs (EKO-35 araC::macAB) [fold] | Fold change of MICs (EKO-35 araC::acrD) [fold] | Fold change of MICs [2] [fold] | MIC [2] [µg/mL] | also measured
1 | C[C@@H]1O[C@@H]1P(=O)(O)O [fosfomycin] | 3.12 | 3.12 | 3.12 | 3.125 | 1 | 3.12 | 3.12 | 6.25 | 6.25 | 6.25 | 6.25 | 1 | 1 | 1.56 | 1 | 1 | 1 | 1 | 1 | 1.56 | MIC (EKO-35 araC::mdtBC): 1.56 µg/mL; MIC (EKO-35 araC::acrB): 1.56 µg/mL; MIC (EKO-35 araC::acrD): 1.56 µg/mL; MIC (EKO-35 araC::acrEF): 1.56 µg/mL; MIC (EKO-35 araC::mdtEF): 1.56 µg/mL; Fold change of MICs (EKO-35 araC::acrBD408A): 1 fold; Fold changes of MICs (EKO-35-Pore): 1 fold; MIC (EKO-35-Pore; [10]): 0.781 µg/mL; MIC (EKO-35-Pore; [11]): 0.781 µg/mL; Fold changes of MICs (EKO-35 araC::acrD Pore): 1 fold; MIC (EKO-35 araC::acrD Pore): 0.781 µg/mL; Fold changes of MICs (EKO-35 araC::emrKY Pore): 1 fold; MIC (EKO-35 araC::emrKY Pore): 0.781 µg/mL; Fold changes of MICs [3]: 1 fold; MIC [3]: 0.781 µg/mL
2 | CC(=O)O[C@H]1C[C@@]2(C)[C@@H](C[C@@H](O)[C@H]3[C@@]4(C)CC[C@@H](O)[C@@H](C)[C@@H]4CC[C@@]32C)/C1=C(\CCC=C(C)C)C(=O)O [fusidic acid] | 100 | 100 | 0.391 | 0.391 | 1 | 3.12 | 3.12 | 400 | 400 | 3.12 | 3.125 | 2 | 1 | 3.12 | 2 | 128 | 1 | 32 | 4 | 12.5 | MIC (EKO-35 araC::emrAB): 6.25 µg/mL; MIC (EKO-35 araC::mdtBC): 6.25 µg/mL; MIC (EKO-35 araC::acrB): 400 µg/mL; MIC (EKO-35 araC::macAB): 3.12 µg/mL; Fold change of MICs (EKO-35 araC::acrEF): 16 fold; MIC (EKO-35 araC::acrEF): 50 µg/mL; Fold change of MICs (EKO-35 araC::mdtEF): 16 fold; MIC (EKO-35 araC::mdtEF): 50 µg/mL; Fold change of MICs (EKO-35 araC::acrBD408A): 1 fold; MIC (EKO-35 araC::acrBD408A): 3.12 µg/mL; Fold changes of MICs (EKO-35-Pore): 1 fold; MIC (EKO-35-Pore; [10]): 0.391 µg/mL; MIC (EKO-35-Pore; [11]): 0.391 µg/mL; Fold changes of MICs (EKO-35 araC::acrD Pore): 32 fold; MIC (EKO-35 araC::acrD Pore): 12.5 µg/mL; Fold changes of MICs (EKO-35 araC::emrKY Pore): 1 fold; MIC (EKO-35 araC::emrKY Pore): 0.391 µg/mL; Fold changes of MICs [3]: 1 fold; MIC [3]: 0.391 µg/mL
3 | NC[C@H]1O[C@H](O[C@H]2[C@H](O)[C@@H](O[C@H]3O[C@H](CO)[C@@H](O)[C@H](N)[C@H]3O)[C@H](N)C[C@@H]2N)[C@H](O)[C@@H](O)[C@@H]1O [kanamycin] | 3.12 | 3.12 | 1.56 | 1.563 | 1 | 3.12 | 3.12 | 3.12 | 3.12 | 1.56 | 1.563 | 1 | 1 | 1.56 | 1 | 1 | 1 | 1 | 1 | 1.56 | Fold change of MICs (EKO-35 araC::acrEF): 1 fold; Fold change of MICs (EKO-35 araC::mdtEF): 1 fold; Fold change of MICs (EKO-35 araC::acrBD408A): 1 fold; MIC (EKO-35 araC::acrBD408A): 1.56 µg/mL; Fold changes of MICs (EKO-35-Pore): 1 fold; MIC (EKO-35-Pore; [10]): 1.56 µg/mL; MIC (EKO-35-Pore; [11]): 1.56 µg/mL; Fold changes of MICs (EKO-35 araC::acrD Pore): 1 fold; MIC (EKO-35 araC::acrD Pore): 1.56 µg/mL; Fold changes of MICs (EKO-35 araC::emrKY Pore): 1 fold; MIC (EKO-35 araC::emrKY Pore): 1.56 µg/mL; Fold changes of MICs [3]: 1 fold; MIC [3]: 0.781 µg/mL
4 | CC(=O)NC[C@H]1CN(c2ccc(N3CCOCC3)c(F)c2)C(=O)O1 [linezolid] | 125 | 125 | 3.91 | 3.906 | 1 | 7.81 | 7.81 | 500 | 500 | 7.81 | 7.813 | 1 | 1 | 3.91 | 1 | 32 | 1 | 1 | 2 | 15.6 | MIC (EKO-35 araC::emrAB): 3.91 µg/mL; MIC (EKO-35 araC::mdtBC): 3.91 µg/mL; MIC (EKO-35 araC::acrB): 250 µg/mL; MIC (EKO-35 araC::macAB): 3.91 µg/mL; MIC (EKO-35 araC::acrD): 7.81 µg/mL; Fold change of MICs (EKO-35 araC::acrEF): 2 fold; MIC (EKO-35 araC::acrEF): 15.6 µg/mL; Fold change of MICs (EKO-35 araC::mdtEF): 1 fold; MIC (EKO-35 araC::mdtEF): 3.91 µg/mL; Fold change of MICs (EKO-35 araC::acrBD408A): 1 fold; MIC (EKO-35 araC::acrBD408A): 7.81 µg/mL; Fold changes of MICs (EKO-35-Pore): 1 fold; MIC (EKO-35-Pore; [10]): 3.91 µg/mL; MIC (EKO-35-Pore; [11]): 3.91 µg/mL; Fold changes of MICs (EKO-35 araC::acrD Pore): 2 fold; MIC (EKO-35 araC::acrD Pore): 7.81 µg/mL; Fold changes of MICs (EKO-35 araC::emrKY Pore): 1 fold; MIC (EKO-35 araC::emrKY Pore): 3.91 µg/mL; Fold changes of MICs [3]: 1 fold; MIC [3]: 3.91 µg/mL
